Source: US8680075B2, “Methods and compositions for inhibiting cellular proliferation and surgical adhesion” (Novelmed Therapeutics, Inc., priority 2009, dated 2014)
“Also recorded” adds a separate entry of the source.

Legend:
3T3 cells = experiment: 3T3 cell proliferation assay (Cy Quant fluorescence); type: cell-based; details: 1 to 600 μg/ml, 5 days, DMEM 10% FCS
Description: Approximately 50,000 cells were plated in a 96 well ELISA plate. The cells were allowed to grow in DMEM with 10% FCS media for 5 days, following which the cells were treated with Cy Quant assay and the inhibition of cellular proliferation was measured using the decreased fluorescence intensity. To evaluate the effect of various concentrations of NM2040 in the cellular proliferation assay, cultures were treated with concentrations ranging from 1 to 600 μg/ml. The total fluorescence intensity was plotted against the concentrations.

C6 cells = experiment: Glioma (C6 cell) proliferation in cloning ring culture; type: cell-based; details: five days; for concentration of maximal effect on glioma proliferation: C6 cells
Description: In a six well plate, a cloning ring of 6 mm diameter was placed and 60 μl aliquot of cellular suspension (stock containing 320,000 cells/ml of C6 cells) was prepared and placed in the center of each well of a six well plate in the cloning ring. After 4 h, the media was removed and the cells were incubated with Opti-MEM 1× media with and without the compound. These cultures were incubated at 37° C. and with 10% CO2 for five days, following which the pictures were taken as shown in FIG. 2. The compound effect appears to be dose dependent with maximal effect shown at […]. The first panel is for controls (untreated), the second panel at 3 mg/ml, the third panel at 1.5 mg/ml, the fourth panel at 0.75 mg/ml, and the fifth panel at 0.36 mg/ml.

C3a = C3a formation in whole blood tubing loop (ELISA); type: cell-based; details: heparinized human whole blood 1:1 plasmalyte, tubing loop 2 hours 37° C.
Description: (§1) Chemotactic peptides are produced at the injury site, which can attract inflammatory cells at the injury site causing inflammation. NM2040 was tested to determine if this compound would inhibit the production of the C3a and C5a. The compound was incubated with blood at 37 degree in a rotating tubing loops. Whole blood from a healthy donor was collected into a polypropylene tube containing 5 units of heparin per ml of whole blood. The whole blood was diluted 1:1 with plasmalyte and aliquoted in 2 ml aliquots with and without drug treatments. PVC tubings of 4 mm diameter were filled with 2.0 ml of the heparinized human blood and closed into a loop with a short piece of silicon tubing. Sample and control tubing loops were rotated vertically in a water bath for 2 hours at 37° C. After incubation, blood samples were transferred into 5 ml siliconized eppendorf tubes. The samples were separated into two aliquots; one aliquot was subjected to flow cytometry studies and the other aliquot was centrifuged to separate the plasma for the measurement of C3a and C5a. The plasma samples were diluted to 5% with sample diluent buffer and the amounts of C3a and C5a were determined using ELISA assay kits following the manufacturer's instructions (Quidel Corporation, San Diego Calif.). […] In the same experiment, NM3015 was also evaluated. […]

C5a = C5a formation in whole blood tubing loop (ELISA); type: cell-based; details: heparinized human whole blood 1:1 plasmalyte, tubing loop 2 hours 37° C.
Description: as §1

alternative pathway = experiment: Alternative pathway (AP) activation; type: cell-based, human
Description: as §1

platelets [1] = experiment: Platelet damage / platelet number after tubing loop (flow cytometry CD61/CD62P); type: cell-based, human; details: blood after tubing loop, FITC CD61 positive platelets
Description: as §1, with “The samples were separated into two aliquots; one aliquot was subjected to flow cytometry studies and the other aliquot was centrifuged to separate the plasma for the measurement of C3a and C5a.” left out
Aliquots of blood following the tubing loop were stained with fluorescent labeled antibodies for flow cytometry studies. […] The samples were subjected to flow cytometry using CellQuest, BD-LSR I and the data were analyzed using WinList 5.0. […]

neutrophils = experiment: Neutrophil activation after tubing loop (flow cytometry CD15/CD11b); type: cell-based, human; details: blood after tubing loop
Description: as §1, with “Sample and control tubing loops were rotated vertically in a water bath for 2 hours at 37° C. After incubation, blood samples were transferred into 5 ml siliconized eppendorf tubes. The samples were separated into two aliquots; one aliquot was subjected to flow cytometry studies and the other aliquot was centrifuged to separate the plasma for the measurement of C3a and C5a.” left out
(§2) Aliquots of blood following the tubing loop were stained with fluorescent labeled antibodies for flow cytometry studies. […] The samples were subjected to flow cytometry using CellQuest, BD-LSR I and the data were analyzed using WinList 5.0. Ln Median was used for calculating the shift in CD11b staining for neutrophils and monocytes. % gated dual labeled cells were quantified for platelet populations.

monocytes = experiment: Monocyte activation after tubing loop (flow cytometry CD14/CD11b); type: cell-based, human; details: blood after tubing loop
Description: as §1, with “Sample and control tubing loops were rotated vertically in a water bath for 2 hours at 37° C. After incubation, blood samples were transferred into 5 ml siliconized eppendorf tubes. The samples were separated into two aliquots; one aliquot was subjected to flow cytometry studies and the other aliquot was centrifuged to separate the plasma for the measurement of C3a and C5a.” left out
as §2

platelets [2] = experiment: Platelet activation after tubing loop (flow cytometry CD61/CD62P); type: cell-based, human; details: blood after tubing loop
Description: as §1, with “Sample and control tubing loops were rotated vertically in a water bath for 2 hours at 37° C. After incubation, blood samples were transferred into 5 ml siliconized eppendorf tubes. The samples were separated into two aliquots; one aliquot was subjected to flow cytometry studies and the other aliquot was centrifuged to separate the plasma for the measurement of C3a and C5a.” left out
as §2

[3] = system: epidural fibrosis after lumbar laminectomy; experiment: Rat laminectomy epidural fibrosis model, Example 6; type: in vivo; details: two weeks after laminectomy
Text: The scar tissue attachment to the spinal cord is believed to be the cause of long-term, recurrent pain following laminectomy procedures. The epidural fibrosis refers to the scar tissue that forms following a laminectomy procedure. Laminectomy refers to back surgery of the lamina. Scar tissue forms within the laminectomy site and binds the undersurface of the erector spinae muscles to the posterior and lateral surfaces of the dura mater and to the nerve roots exiting through the dura matter. Epidural fibrosis was investigated after lumbar laminectomy in rats. In this model, a laminectomy is performed at the lumbar 3 (L3) and 5 (L5) vertebrae and then the test agent is applied to the laminectomy site. Subsequently, the laminectomy sites are examined for fibrosis by gross dissection.
Laminectomies were performed at lumbar vertebrae L3 and L5 to provide auto-controls within each animal. Gelfoam-NM2040 mix was prepared and used on Laminectomy sites in rats. Lewis inbred rats were anesthetized isofluorane. The dorsal skin was incised and the paraspinal muscles were separated from the spinous processes of lumbar vertebrae L2 through L6 to expose the L3 and L5. The spinous processes of L3 and L5 were removed and the vertebral lamina was also removed creating a rectangular laminectomy defect. The test material was placed onto the laminectomy site. […] The site and the tissue were scored 0 to 2. […]

[4] = system: epidural fibrosis after laminectomy; experiment: Rat laminectomy epidural fibrosis model, Example 8; type: in vivo
Description: Epidural fibrosis was investigated after laminectomies in adult Lewis rats. Laminectomies were performed at the lumbar 3 (L3) and 5 (L5) vertebrae. The test agent gel was applied to one site and saline (control) was applied to the other. Two weeks later, the laminectomy sites were examined for fibrosis by gross dissection as previously described. Briefly, rats were anesthetized. The dorsal skin was incised and the paraspinal muscles were separated from the spinous processes of lumbar vertebrae L2 through L6 to expose L3 and L5. The spinous processes of L3 and L5 and the vertebral lamina were removed, creating a rectangular laminectomy defect approximately 5×2 mm (FIG. 11A). The test material NM2040, or vehicle was placed onto the laminectomy site according to randomized, coded protocol (FIG. 11B). The formulation of NM2040 consisted of 10% gel foam powder, 20 mg/ml final concentration in sterile saline. The mixtures were placed in a syringe, autoclaved and allowed to cool to room temperature prior to placement into the laminectomy site. The fascia overlying the paraspinal muscles was sutured 5-0 polydoxanone PDS resorbable suture (Ethicon) and the skin incision was closed with 7.5 mm Michel wound clips. After two weeks, animals were anesthetized and subjected to gross evaluation. For gross evaluation, the wound site was reopened by incising the skin and separating the paraspinal muscles. Epidural scar formation was designated as the connective tissue between the test material and the dura mater. The thickness and toughness of the deep scar was evaluated by blunt dissection and scored 0 to 2.0 being the “no adhesions” with the dura mater clearly visible, 1 being a thin, lose connective tissue covering the dura that was easily removed, and 2 being a thick, dense tenacious adhesion that was difficult to impossible to remove without tearing the dura. Scoring was completed without knowledge of treatment at any of the laminectomy sites.

## conjugate of dextran sulfate and 2-(butane-1-sulfonylamino)-3-[4-(4-piperidin-4-yl-butoxy)-phenyl]-propionic acid [NM2040]
3T3 cells
  3T3 cell proliferation: Inhibits
C6 cells; C6 cells, 0.36, 0.75, 1.5 and 3 mg/ml
  glioma proliferation, effect: inhibitory at all doses
C6 cells; first statement
  concentration of maximal effect on glioma proliferation: 3 µg/mL
C6 cells; second statement
  concentration of maximal effect on glioma proliferation: ~1000 µg/mL
C3a
  C3a production: prevent C3a and C5a production in a dose dependent manner
C5a
  C5a production: prevent C3a and C5a production in a dose dependent manner
Alternative pathway
  activation of the alternative pathway: inhibits activation of the alternative pathway
Platelets [1]
  effect on platelets (platelet damage / number): does not affect the platelets; also recorded: does not destroy platelets
neutrophils
  neutrophil activation (CD11b shift): significant inhibition of cellular activation
monocytes
  monocyte activation (CD11b shift): significant inhibition of cellular activation
Platelets [2]
  platelet activation (% gated CD61/CD62P dual labeled): significant inhibition of cellular activation
[3]
  adhesion scores compared to saline controls: significantly lower
[4]; two weeks after laminectomy
  adhesion scores compared to treatment with vehicle: significantly reduces adhesion scores
  gross appearance of laminectomy site: thin easily removed connective tissue above the dura to no adhesions
[4]; two weeks after laminectomy, gel at site, saline sites scored 2
  average gross evaluation score of epidural scar (0 to 2): 0.5
[4]; two weeks, compared to controls
  histological sections of the vertebral column at L3 (Masson trichrome): smooth filling
[4]; two weeks, compared to saline controls
  MRI appearance of laminectomy site: the tissue appears to be smooth
